Data reported in patent US12331042B2, “Compounds suitable for the treatment and prophylaxis of muscle wasting and other conditions” (priority 2019, dated 2025).
“Also recorded” adds a separate entry of the source.

Tests used:
[1] = tested on: C2C12 myotubes (myocytes); assay: Cytotoxicity, LDH release in cultured myotubes (myocytes); format: cell-based, Murine; conditions: increasing concentrations, 24 h
Experimental: (§1) Murine C2C12 myoblasts (CRL-1772, ATCC) were cultured in DMEM (Lonza; Basel, Switzerland) supplemented with 10% fetal calf serum (FCS; Gibco®Invitrogen, Carlsbad, CA). For induction of differentiation into myotubes, subconfluent cultures were switched to DMEM containing 2% horse serum (Sigma-Aldrich; Seelze, Germany). Myotubes were subsequently pre-treated for 2 h with increasing compound concentrations (0.1 to 10 μmol/L, dissolved in DMSO) or with an equal volume of DMSO before treatment for 24 h with 10 μmol/L dexamethasone (DEX; Sigma-Aldrich; Seelze, Germany). Myotube diameter was then evaluated by image analysis software (Analysis 3.0, Olympus Soft Imaging Solutions GmbH, Munster, Germany). To determine cytotoxicity of selected compounds, myoblasts or myotubes were incubated with increasing concentrations for 24 h. Subsequently, the concentration of lactate dehydrogenase (LDH) activity was quantified in the cell culture supernatant as a measure for cell destruction as described in Bellocci et al., Anal Biochem, 2008, 374, 48-55.

[2] = tested on: monocrotaline (MCT)-treated C57BL/6 mice; assay: Pulmonary hypertension mouse model, test series 2; format: in vivo; conditions: MCT+compound (0.1 weight-% in chow) vs MCT, 8 weeks
Experimental: The test series 2 were performed analogous to test series 1. Briefly, Three groups of mice were included in this study: 1) saline-treated mice (sham; n=10); 2) monocrotaline (MCT)-treated mice fed with normal chow (MCT; n=10); and 3) MCT-treated mice fed with MuRF1 inhibitor chow (MCT+compound; n=10 for each compound). 8 weeks old C57BL/6 mice were subcutaneously injected weekly with either MCT (600 mg/kg) or a matched volume of saline for 8 weeks. The MCT+compound group started receiving the inhibitor chow 1 week prior to the MCT injections, whereas the sham and MCT groups were fed an identical chow but without the addition of the selected compound. The compound concentration in the chow was 0.1 weight-%, resulting in a daily compound intake per mouse of about 3 mg. Body weight was recorded every week for each mouse. Mice were sacrificed after 8 weeks treatment. At sacrifice, examination and tissue analysis were performed as described in test series 1.

[3] = tested on: Mrps5 (mitochondrial ribosomal protein 5); assay: Proteomic analysis of diaphragm tissue, CHF mice; format: in vivo, Mus musculus; conditions: CHF mice with vs without compound feeding, P=0.02
Experimental: To analyze the molecular mechanisms underlying the observed physiological changes and benefits of MyoMed-946-treated mice suffering from CHF, comparative quantitative proteomic analysis as well as Western blot analysis of diaphragm tissue from sham, CHF, and CHF+MyoMed-946-treated mice were performed.
Mass spectrometry-based proteomic analysis was performed at the DZHK Core Facility, Bad Nauheim, Germany. Obtained MS raw data were processed by MaxQuant (1.6.0.1) using the Andromeda search engine and the Uniprot database for Mus musculus (as of 20 Apr. 2017). At a false discovery rate of 1% (both peptide and protein levels), >2600 protein groups were identified. The reductive dimethylation protocol employed (see Boersema et al., Nat Protoc, 2009, 4, 484-494) yielded pairwise relative comparative quantitation (ratios) between proteins from CHF+MyoMed-946, CHF, and sham conditions, which were statistically queried for significant differences using standard statistical tests. Several proteins were identified to be statistically different (e.g. TNNT3, Timm9, Ccdc5, Adi1, Ptges3, and Ndufa3).

[4] = tested on: porin, telethonin, MRPS-5, MuRF1, MuRF2, Tom20 expression; assay: Western blot analysis of diaphragm, CHF mice; format: in vivo
Experimental: For western blot analyses, frozen diaphragm was homogenized in relaxing buffer (90 mmol/L HEPES, 126 mmol/L potassium chloride, 36 mmol/L sodium chloride, 1 mmol/L magnesium chloride, 50 mmol/L EGTA, 8 mmol/L ATP, and 10 mmol/L creatine phosphate, pH 7.4) containing a protease inhibitor mix (Inhibitor Mix M, Serva, Heidelberg, Germany) and sonicated. Protein concentration of the supernatant was determined (bicinchoninic acid assay, Pierce, Bonn, Germany), and aliquots (5-20 μg) were separated by sodium dodecyl sulfate-polyacrylamide gel electrophoresis. Proteins were transferred to a polyvinylidene fluoride membrane and incubated overnight at 4° C. using the following primary antibodies: porin and telethonin (both 1/1000, Abcam, Cambridge, UK), MRPS-5 ( 1/500, Thermo Fisher, Rockford, IL, USA), MuRF1 and MuRF2 (both 1/1000; commercially available from Myomedix, Neckargemünd, Germany), and Tom20 (1:200, Santa Cruz Biotechnologies, Heidelberg, Germany). Membranes were subsequently incubated with a horseradish peroxidase conjugated secondary antibody, specific bands were visualized by enzymatic chemiluminescence (Super Signal West Pico, Thermo Fisher Scientific Inc., Bonn, Germany), and densitometry was quantified using a one-dimensional scan software package (Scanalytics Inc., Rockville, MD, USA). Measurements were normalized to the loading control GAPDH ( 1/30000; HyTest Ltd, Turku, Finland) or α-tubulin (1:1000, Santa Cruz Biotechnologies). All data are presented as fold change relative to sham.

[5] = tested on: MuRF1 mRNA in C2C12 myotubes; assay: MuRF1 mRNA in C2C12 myotubes treated with dexamethasone (RT-PCR); format: cell-based, Murine; conditions: pre-treatment at 0.1 μmol/L and 10 μmol/L, then 24 h dexamethasone 10 μmol/L
Experimental: as §1
After the incubation period, Total RNA was isolated from C2C12 cells and reverse transcribed into cDNA using random hexamers and Sensiscript reverse transcriptase (Qiagen, Hilden, Germany). An aliquot of the cDNA was used for quantitative RT-PCR, applying the Light Cycler system (Roche Diagnostics, Mannheim, Germany). […]

Structure (SMILES): Cc1cc(=O)oc2cc(OCc3ccc(C(=O)OCC(=O)NC(=O)NCc4ccco4)cc3)ccc12 [MyoMed-946, [2-(2-furylmethylcarbamoylamino)-2-oxo-ethyl] 4-[(4-methyl-2-oxo-chromen-7-yl)oxymethyl]benzoate]
- toxicity (LDH release) [1]: low toxicity
- right ventricle hypertrophy [2]: attenuated; also recorded: attenuate the development of right ventricle hypertrophy
- Mrps5 protein level (proteomics) [3]: significantly up-regulated
- TOM-20 expression ([4]; CHF+compound): attenuated; also recorded: modest, but statistically significant, improvement
- mitochondrial porin expression ([4]; CHF+compound): attenuated; also recorded: near-normal
- reduction of Mrps5 expression (Western blot) ([4]; CHF+compound vs CHF): reversed
- up-regulation of MuRF1 expression ([4]; CHF+compound vs CHF): attenuated; also recorded: prevented
- up-regulation of MuRF2 expression ([4]; CHF+compound vs CHF): attenuated; also recorded: prevented
- reduced expression of telethonin ([4]; trend (P=0.08) in CHF group): attenuated; also recorded: not evident
- expression of MuRF1 at the mRNA level [5]: reduced MuRF1 mRNA levels; also recorded: prevented
